Data published in PubChem BioAssay AID1919009 (Molecular Pharmacology Branch, DTP, NCI, 2023).
pIC50: −log10 of the molar value.

Tested on: K24384-001-R-PDC complex spheroid growth
Experiment: Anticancer human tumor K24384-001-R-PDC patient-derived pancreatic adenocarcinoma cell line growth inhibition [AhR]
Details: for pIC50: curve of first compound; for viability, T/C: stronger effect = lower value; active = viability on the fitted dose curve at most 10% of control; inactive = the rest
Description: Multicellular complex tumor spheroid response to aryl hydrocarbon receptor antagonists in combination with a variety of drugs and investigational agents in selected tumor cell lines
The current study was undertaken to assess response to aryl hydrocarbon receptor antagonists in combination with standard-of-care drugs and investigational agents in solid tumor complex spheroid models. Complex spheroids include a stromal component modeled by human endothelial cells (HUVEC) and fibroblasts modeled by human mesenchymal stem cells (MSCs). The concentration ranges selected for each drug and investigational agent were based upon clinically achievable concentrations if the clinical Cmax of the agent was known.
Compounds. The drugs and investigational agents: BAY 2416964 (NSC825713), GNF351 (NSC835774), CH-223191 (NSC835775), CPI-455 (NSC825282), aza-TdCyd (NSC777586), decitabine (NSC127716), belinostat (NSC758774), entinostat (NSC756642), pevonedistat (NSC761192), tazemetostat (NSC777109), talazoparib (NSC765396), olaparib (NSC753686), selinexor (NSC780203), nedisertib (M3814, NSC802822), bortezomib (NSC756655), venetoclax (NSC766270), doxorubicin (NSC123127), elimusertib (BAY189344, NSC800525), ceralasertib (AZD6738, NSC777638), TAK-243 (NSC785004), alisertib (NSC759677), etoposide (NSC141540), topotecan (NSC609699), eribulin (NSC707389), gemcitabine (NSC613327), carboplatin (NSC241240), cisplatin (NSC119875), and SN-38 (NSC673596) were obtained from the National Cancer Institute (NCI) Developmental Therapeutics Program Chemical Repository (32). The FDA-approved anticancer drug set is available from the Developmental Therapeutics Program at https://dtp.cancer.gov/organization/dscb/obtaining/available plates.htm. […] The stock solutions were prepared in dimethyl sulfoxide (DMSO, Sigma-Aldrich, St. Louis, MO, cat. D2650), except for the platinum compounds which were prepared in saline (Quality Biological, Gaithersburg, MD, cat. 114-055-101), at 800-fold the tested concentration and stored at -70 degrees C prior to their use. All drugs and investigational agents were tested over a range starting from a high concentration at or near the clinical Cmax and decreasing in half-log increments. If the clinical Cmax for an agent had not been determined, the highest concentration tested was 10 microM (Table 1).
Cell Culture. All cells were maintained in an incubator at 37 degrees C and 5% CO2 with 95% humidity. The PDC lines were cultured according to standard operating procedures established by the NCI PDMR (https://pdmr.cancer.gov). Briefly, all PDCs were thawed and cultured in Matrigel-coated flasks prepared with a working solution of 1X Ham's F-12 nutrient mix, without supplementation (Invitrogen, Waltham, MA, cat. 11765054), 100 U/mL penicillin-streptomycin (Invitrogen, cat. 15140122), and 2.5% Matrigel (Corning Inc., Corning, NY, cat. 354248) for the first three passages. All PDCs were cultured in complete DMEM/F-12 media containing advanced DMEM/F-12 (Invitrogen, cat. 12634028), 4.9% defined fetal bovine serum, heat inactivated (HyClone Laboratories Inc., Logan, UT, cat. SH30070.03HI), 389 ng/mL hydrocortisone (Sigma-Aldrich, cat. H4001), 9.7 ng/mL human EGF recombinant protein (Invitrogen, cat. PHG0313), 23.4 microg/mL adenine (Sigma-Aldrich, cat. A2786), 97.3 U/mL penicillin-streptomycin (Invitrogen, cat. 15140122), 1.9 mM L-glutamine (Invitrogen, cat. 25030081), and 9.7 microM Y-27632 dihydrochloride (Tocris Bioscience, Bristol, United Kingdom, cat. 1254). The PDCs were cultured in complete DMEM/F12 media without 10 microM Y-27632 dihydrochloride for at least two passages prior to the screen. The established cell lines NCI-H1341 and […] were cultured in DMEM/F-12, HEPES (Invitrogen, cat. 11330032), 5% defined fetal bovine serum (HyClone Laboratories Inc., cat. SH30070.03), ITS premix universal culture supplement [insulin (5 microg/mL), transferrin (5 microg/mL), and selenious acid (5 ng/mL)] […]

[1] = second compound 0.1 µM, first compound 0.0316 µM
[2] = second compound 0.1 µM, first compound 0.1 µM
[3] = second compound 0.1 µM, first compound 0.316 µM
[4] = second compound 0.1 µM, first compound 1 µM
[5] = second compound 0.1 µM, first compound 3.16 µM
[6] = second compound 0.1 µM, first compound 10 µM
[7] = second compound 0.316 µM, first compound 0.0316 µM
[8] = second compound 0.316 µM, first compound 0.1 µM
[9] = second compound 0.316 µM, first compound 0.316 µM
[10] = second compound 0.316 µM, first compound 1 µM
[11] = second compound 0.316 µM, first compound 3.16 µM
[12] = second compound 0.316 µM, first compound 10 µM
[13] = second compound 1 µM, first compound 0.0316 µM
[14] = second compound 1 µM, first compound 0.1 µM
[15] = second compound 1 µM, first compound 0.316 µM
[16] = second compound 1 µM, first compound 1 µM
[17] = second compound 1 µM, first compound 3.16 µM
[18] = second compound 1 µM, first compound 10 µM
[19] = second compound 3.16 µM, first compound 0.0316 µM
[20] = second compound 3.16 µM, first compound 0.1 µM
[21] = second compound 3.16 µM, first compound 0.316 µM
[22] = second compound 3.16 µM, first compound 1 µM
[23] = second compound 3.16 µM, first compound 3.16 µM
[24] = second compound 3.16 µM, first compound 10 µM
[25] = second compound 10 µM, first compound 0.0316 µM
[26] = second compound 10 µM, first compound 0.1 µM
[27] = second compound 10 µM, first compound 0.316 µM
[28] = second compound 10 µM, first compound 1 µM
[29] = second compound 10 µM, first compound 3.16 µM
[30] = second compound 10 µM, first compound 10 µM
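For viability, T/C in this document: percent of DMSO vehicle-treated spheroid viability set as 100%.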

COc1cc(Nc2ncc3c(n2)-c2ccc(Cl)cc2C(c2c(F)cccc2OC)=NC3)ccc1C(=O)O + CC(CO)NC(=O)c1cc(-c2ccc(Cl)cc2)nn(-c2cnn(C)c2)c1=O
inactive: viability, T/C [1] 87.6% | viability, T/C [2] 80.7% | viability, T/C [3] 84% | viability, T/C [4] 57.6% | viability, T/C [5] 44.5% | viability, T/C [6] 45.5% | viability, T/C [7] 81% | viability, T/C [8] 79.9% | viability, T/C [9] 76.4% | viability, T/C [10] 57.5% | viability, T/C [11] 48.4% | viability, T/C [12] 51.6% | viability, T/C [13] 92.3% | viability, T/C [14] 77.7% | viability, T/C [15] 79.4% | viability, T/C [16] 60.5% | viability, T/C [17] 49.5% | viability, T/C [18] 55% | viability, T/C [19] 90.6% | viability, T/C [20] 73.4% | viability, T/C [21] 72.5% | viability, T/C [22] 54% | viability, T/C [23] 62.3% | viability, T/C [24] 58.6% | viability, T/C [25] 94% | viability, T/C [26] 77.1% | viability, T/C [27] 80.7% | viability, T/C [28] 69.7% | viability, T/C [29] 64% | viability, T/C [30] 65.8%
< 5.00: pIC50 (second compound 1 µM) | pIC50 (second compound 3.16 µM) | pIC50 (second compound 10 µM)
5.70: pIC50 (second compound 0.1 µM)
5.11: pIC50 (second compound 0.316 µM)

NS(=O)(=O)OCC1CC(n2ccc3c(NC4CCc5ccccc54)ncnc32)CC1O (stereo not given) + CC(CO)NC(=O)c1cc(-c2ccc(Cl)cc2)nn(-c2cnn(C)c2)c1=O
6.01: pIC50 (second compound 0.1 µM)
6.07: pIC50 (second compound 1 µM)
6.33: pIC50 (second compound 3.16 µM)
inactive: viability, T/C [1] 114% | viability, T/C [2] 123% | viability, T/C [3] 116% | viability, T/C [4] 49% | viability, T/C [5] 28.7% | viability, T/C [6] 25.3% | viability, T/C [7] 132% | viability, T/C [8] 147% | viability, T/C [9] 89.4% | viability, T/C [10] 45.6% | viability, T/C [11] 26.6% | viability, T/C [12] 22.1% | viability, T/C [13] 152% | viability, T/C [14] 162% | viability, T/C [15] 72% | viability, T/C [16] 38.2% | viability, T/C [17] 32.9% | viability, T/C [18] 22.5% | viability, T/C [19] 125% | viability, T/C [20] 128% | viability, T/C [21] 60.6% | viability, T/C [22] 38.8% | viability, T/C [23] 28.6% | viability, T/C [24] 23.1% | viability, T/C [25] 87.1% | viability, T/C [26] 79.8% | viability, T/C [27] 59.1% | viability, T/C [28] 44.7% | viability, T/C [29] 29.6% | viability, T/C [30] 24.6%
6.09: pIC50 (second compound 0.316 µM)
6.19: pIC50 (second compound 10 µM)
